# Literature values in patent US20230320989A1, “SUSTAINED-RELEASE PHARMACEUTICAL FORMULATION OF FUSED TRICYCLIC ?-AMINO ACID DERIVATIVE AND PREPARATION METHOD THEREFOR” (SICHUAN HAISCO PHARMACEUTICAL CO., LTD., priority 2020, published 2023).
# Details: patients with diabetic peripheral neuropathy
compound,measurement,value
NCC1(CC(=O)O)CCCCC1 [gabapentin],proportion of patients whose pain is relieved to a great extent,about 60%
